From US8987250B2 (Gilead Sciences, Inc., priority 2012, dated 2015)
pEC50: −log10 of the molar value.

System: HIV-IIIb
Test: Test A: Antiviral Assay in MT4 Cells
Assay type: cell-based
Details: Human immunodeficiency virus 1, IIIB, MT4, 120 h, Table 2; MT-4 cells infected with HIV-IIIb, 5 days of incubation, CellTiter-Glo; read-out: EC50
In short: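 MT-4 cells pre-infected with HIV-IIIb (0.004 m.o.i.) at 37 °C, then exposed to 3-fold serial compound dilutions (10 concentrations, quadruplicate) in RPMI 1640/10% FBS. After 5 days at 37 °C, viability read by CellTiter-Glo luminescence.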

SMILES	pEC50
Cc1cc2nc(-c3ccc4scnc4c3)sc2c(-c2ccc(Cl)cc2)c1[C@H](OC(C)(C)C)C(=O)O [Compound 429]	7.37
Cc1cc2nc(-c3ccc4cnn(C)c4c3)sc2c(-c2ccc(Cl)cc2)c1[C@H](OC(C)(C)C)C(=O)O [Compound 430]	7.54
Cc1cc2nc(N3Cc4cccnc4C3)sc2c(-c2ccc(Cl)cc2)c1[C@H](OC(C)(C)C)C(=O)O [Compound 431]	7.74
Cc1cc2nc(N3Cc4ccncc4C3)sc2c(-c2ccc(Cl)cc2)c1[C@H](OC(C)(C)C)C(=O)O [Compound 432]	7.74
Cc1cc2nc(N3CCc4cccnc4C3)sc2c(-c2ccc(Cl)cc2)c1[C@H](OC(C)(C)C)C(=O)O [Compound 433]	7.42
Cc1cc2nc(N3CCc4ccncc4C3)sc2c(-c2ccc(Cl)cc2)c1[C@H](OC(C)(C)C)C(=O)O [Compound 434]	7.38
Cc1cc2nc(N3CCc4cnccc4C3)sc2c(-c2ccc(Cl)cc2)c1[C@H](OC(C)(C)C)C(=O)O [Compound 435]	7.41
Cc1cc2nc(N3Cc4ccccc4C(F)(F)C3)sc2c(-c2ccc(Cl)cc2)c1[C@H](OC(C)(C)C)C(=O)O [Compound 436]	7.17
Cc1cc2nc(N3CC[C@@H]4CCCC[C@@H]4C3)sc2c(-c2ccc(Cl)cc2)c1[C@H](OC(C)(C)C)C(=O)O [Compound 437]	6.51
Cc1cc2nc(N3CC[C@H]4CCCC[C@@H]4C3)sc2c(-c2ccc(Cl)cc2)c1[C@H](OC(C)(C)C)C(=O)O [Compound 438]	6.59
Cc1cc2nc(N3Cc4ccccc4C3)sc2c(-c2ccc(Cl)cc2)c1[C@H](OC(C)(C)C)C(=O)O [Compound 439]	7.70
Cc1cc2nc(N3CCc4nn(C)c(C)c4C3)sc2c(-c2ccc(Cl)cc2)c1[C@H](OC(C)(C)C)C(=O)O [Compound 440]	7.96
Cc1cc2nc(N3CCc4c(c(C)nn4C)C3)sc2c(-c2ccc(Cl)cc2)c1[C@H](OC(C)(C)C)C(=O)O [Compound 441]	8.40
Cc1cc2nc(N3CCn4c(C)nnc4C3)sc2c(-c2ccc(Cl)cc2)c1[C@H](OC(C)(C)C)C(=O)O [Compound 442]	5.94
Cc1cc2nc(-c3ccnc(-c4ccc5c(c4)c(C)nn5C)c3)sc2c(-c2ccc(Cl)cc2)c1[C@H](OC(C)(C)C)C(=O)O [Compound 443]	7.62
CNc1nn(C)c2ccc(-c3nc4cc(C)c([C@H](OC(C)(C)C)C(=O)O)c(-c5ccc(Cl)cc5)c4s3)cc12 [Compound 444]	8.00
CNc1nn(C)c2cc(-c3nc4cc(C)c([C@H](OC(C)(C)C)C(=O)O)c(-c5ccc(Cl)cc5)c4s3)ccc12 [Compound 445]	8.30
Cc1cc2nc(-c3ccc4c(c3)OCCO4)sc2c(-c2ccc(Cl)cc2)c1[C@H](OC(C)(C)C)C(=O)O [Compound 446]	6.76
Cc1cc2nc(-c3ccnc(-n4ccc5ncccc5c4=O)c3)sc2c(-c2ccc(Cl)cc2)c1[C@H](OC(C)(C)C)C(=O)O [Compound 447]	8.30
Cc1cc2nc(-c3ccnc(-c4ccc5ccn(C)c(=O)c5c4)c3)sc2c(-c2ccc(Cl)cc2)c1[C@H](OC(C)(C)C)C(=O)O [Compound 448]	8.05

SMILES	pEC50
Cc1cc2nc(-c3ccnc(-c4ccc5cc[nH]c(=O)c5c4)c3)sc2c(-c2ccc(Cl)cc2)c1[C@H](OC(C)(C)C)C(=O)O [Compound 449]	7.52
Cc1cc2nc(-n3ccc4cnccc4c3=O)sc2c(-c2ccc(Cl)cc2)c1[C@H](OC(C)(C)C)C(=O)O [Compound 450]	7.60
COc1ccc2ccc(-c3cc(-c4nc5cc(C)c([C@H](OC(C)(C)C)C(=O)O)c(-c6ccc(Cl)cc6)c5s4)ccn3)cc2n1 [Compound 451]	7.07
Cc1cc2nc(-c3ccnc(-c4ccc5ccc(=O)n(C)c5c4)c3)sc2c(-c2ccc(Cl)cc2)c1[C@H](OC(C)(C)C)C(=O)O [Compound 452]	7.80
Cc1cc2nc(-c3ccnc(-c4ccc5ccc(=O)[nH]c5c4)c3)sc2c(-c2ccc(Cl)cc2)c1[C@H](OC(C)(C)C)C(=O)O [Compound 453]	7.44
Cc1cc2nc(-c3ccnc(-c4cnc5c(c4)n(C)c(=O)n5C)c3)sc2c(-c2ccc(Cl)cc2)c1[C@H](OC(C)(C)C)C(=O)O [Compound 454]	7.74
Cc1cc2nc(-c3ccc4c(c3)c(=O)n(C)n4C)sc2c(-c2ccc(Cl)cc2)c1[C@H](OC(C)(C)C)C(=O)O [Compound 455]	7.77
Cc1cc2nc(-c3ccnc(N4CC5CCCCN5C4=O)c3)sc2c(-c2ccc(Cl)cc2)c1[C@H](OC(C)(C)C)C(=O)O (stereo partly drawn) [Compound 456]	7.70
COc1ccc2cc(-c3cc(-c4nc5cc(C)c([C@H](OC(C)(C)C)C(=O)O)c(-c6ccc(Cl)cc6)c5s4)ccn3)ccc2n1 [Compound 457]	7.02
Cc1cc2nc(-c3ccnc(-n4ccc5ccncc5c4=O)c3)sc2c(-c2ccc(Cl)cc2)c1[C@H](OC(C)(C)C)C(=O)O [Compound 458]	8.30
Cc1cc2nc(-c3ccnc(-c4ccc5[nH]c(=O)ccc5c4)c3)sc2c(-c2ccc(Cl)cc2)c1[C@H](OC(C)(C)C)C(=O)O [Compound 459]	7.55
Cc1cc2nc(-c3ccnc(-n4ccn5cccc5c4=O)c3)sc2c(-c2ccc(Cl)cc2)c1[C@H](OC(C)(C)C)C(=O)O [Compound 460]	7.51
Cc1cc2nc(-c3ccnc(-c4ccc5c(c4)c(=O)n(C)n5C)c3)sc2c(-c2ccc(Cl)cc2)c1[C@H](OC(C)(C)C)C(=O)O [Compound 461]	7.85
Cc1cc2nc(-c3ccnc(-n4ccc5ccccc5c4=O)c3)sc2c(-c2ccc(Cl)cc2)c1[C@H](OC(C)(C)C)C(=O)O [Compound 462]	7.38
Cc1cc2nc(-c3ccnc(-c4ccc5c(c4)[nH]c(=O)n5C)c3)sc2c(-c2ccc(Cl)cc2)c1[C@H](OC(C)(C)C)C(=O)O [Compound 463]	7.28
CCC(CC)N1CCN(c2nccc(-c3nc4cc(C)c([C@H](OC(C)(C)C)C(=O)O)c(-c5ccc(Cl)cc5)c4s3)n2)CC1 [Compound 464, (S)-2-tert-butoxy-2-(7-(4-chlorophenyl)-5-methyl-2-(2-(4-(pentan-3-yl)piperazin-1-yl)pyrimidin-4-yl)benzo[d]thiazol-6-yl)acetic acid]	7.92
Cc1cc2nc(-c3ccnc(N4CCN(C(C)(C)C)CC4)n3)sc2c(-c2ccc(Cl)cc2)c1[C@H](OC(C)(C)C)C(=O)O [Compound 465, (S)-2-tert-butoxy-2-(2-(2-(4-tert-butylpiperazin-1-yl)pyrimidin-4-yl)-7-(4-chlorophenyl)-5-methylbenzo[d]thiazol-6-yl)acetic acid]	8.70
Cc1cc2nc(-c3ccnc(N4CCN(C(C)C)C[C@H]4C)n3)sc2c(-c2ccc(Cl)cc2)c1[C@H](OC(C)(C)C)C(=O)O [Compound 466, (S)-2-tert-butoxy-2-(7-(4-chlorophenyl)-2-(2-((R)-4-isopropyl-2-methylpiperazin-1-yl)pyrimidin-4-yl)-5-methylbenzo[d]thiazol-6-yl)acetic acid]	8.30
Cc1cc2nc(-c3ccnc(N4CCN(C)[C@@H](C)C4)n3)sc2c(-c2ccc(Cl)cc2)c1[C@H](OC(C)(C)C)C(=O)O [Compound 468, (S)-2-tert-butoxy-2-(7-(4-chlorophenyl)-2-(2-((S)-3,4-dimethylpiperazin-1-yl)pyrimidin-4-yl)-5-methylbenzo[d]thiazol-6-yl)acetic acid]	8.10
